Read-outs that look alike come from different tables or passages of the source.
Columns and labels:
SaRohS = test system: T1, SaRohS; test: HPLC of azomycin formed, Michaelis-Menten fit; assay type: biochemical, Saccharothrix sp.; conditions: pH 5.5, 25 °C, 20 min, 10 µM enzyme, 2 mM FeSO4, 50 µM PMS, 5 mM NADH, 20 mM HEPES
T1 construct: codon-optimised gene in pETDuet-28a+, E. coli BL21 (DE3), Ni-NTA purified
Text: HPLC of azomycin formed, Michaelis-Menten fit on SaRohS

Nc1ncc[nH]1 = test: purified protein; conditions: pH 5.5, 25 °C, 20 min, 10 µM enzyme, 2 mM FeSO4, 50 µM PMS, 5 mM NADH, 20 mM HEPES

| Km (SaRohS) | Km (SaRohS; read-out: G95A/K115T) | Km (SaRohS; read-out: T75A) | Compound | Km (Nc1ncc[nH]1) | kcat (Nc1ncc[nH]1) | kcat/Km (Nc1ncc[nH]1) |
| --- | --- | --- | --- | --- | --- | --- |
| 182.69 ± 0.01 µM | 82.68 ± 0.001 µM | 924.17 ± 0.1 µM | Nc1ncc[nH]1 [2-aminoimidazole] | – | – | – |
| – | – | – | KaRohS (Kitasatospora azatica) | 390.55 ± 0.02 µM | 0.00383 ± 8.33e-05 s⁻¹ | 10 M⁻¹ s⁻¹ |
